{
  "source": "patent US20260217701A1",
  "about": "“SELECTIVE BET INHIBITORS AND USES THEREOF” (Tay Therapeutics Limited, priority 2022, published 2026)",
  "assay": "Dog PK study #3 (Compound A PO once daily 5 days, 5/10/20 mg/kg; PK, body weight, hematology)",
  "type": "in vivo, beagle dogs",
  "conditions": "for Tmax / AUC(0-inf) / Cmax / MRT inf / MRT last / half-life / AUC(0-t): male, beagle, dog, plasma, po; for AUC(0-inf): read-out: AUC0-inf; for Cmax: read-out: Cmax; for MRT inf: read-out: MRT0-inf; for MRT last: read-out: MRT0-last; for half-life: read-out: T½ (converted)",
  "method": "For the third dog pharmacokinetic study, three solutions of different concentrations of Compound A were prepared in 5% DMSO/15% PEG-400/80% (10% VE-TPGS) as outlined in Table 2E. The Compound A solutions were administered to animals orally (PO) once daily over a five-day period. Body weight was recorded prior to dosing, and detailed clinical observations were made prior to dosing and throughout the study, as needed.\nAnimals were divided into Day 1 and Day 5 sample collection groups, with animals in the Day 1 collection group having blood samples taken prior to dosing and at 0.25, 0.5, 1, 2, 4, 8, and 24 hours after dosing on day 1. Animals in the Day 5 collection group having blood samples taken prior to dosing and at 0.25, 0.5, 1, 2, 4, 8, and 24 hours after dosing on day 5. Study groups are outlined in Table 3D.\nBlood samples (~0.3 mL) were collected on day according to the following schedule (0.25, 0.5, 1, 2, 4, 8, and 24 h) after day 5 administration of Compound A by venipuncture of peripheral veins except for the dosing vein, and EDTA-K2 was used as anticoagulant. Within 30 minutes of collection, the samples were centrifuged at approximately 2000 times g-force for 10 minutes at 4° C. to obtain blood plasma. The plasma samples were immediately divided into two aliquots (~75 μL each), transferred to a cryogenic vial, and stored in a freezer at −75±15° C. prior to analysis.\nThe concentration of Compound A in the blood plasma was determined through LC-MS as previously described. Briefly, the experiments were conducted on a DMPK-LCMS-14-SMBA Triple Quad 6500 Plus instrument with an ACQUITY UPLC BEH C18 1.7 μm (50×2.1 mm) column. The matrix was male beagle dog plasma potassium (K2) EDTA A gradient of 95% water (0.1% formic acid and 2 mM HCOONH4)/95% acetonitrile (0.1% formic acid and 2 mM HCOONH4) was used as the mobile phase. The sample flow rate was 0.6 mL/min.\nThe samples were then vortex-mixed for 10 minutes at 800 rpm and centrifuged for 15 minutes at 3220×g at 4° C. 50 μL aliquots of supernatant were transferred to a clean 96-well plate and centrifuged for 5 minutes at 3220×g at 4° C. Samples were then injected into the LC/MS/MS system for quantitative analysis.\nThe gathered data were used for pharmacokinetic calculations using T1/2, CO, AUClast, AUCinf, MRTinf, Cl, Vss, and Number of Points for Regression as parameters.\nThe cell composition (hematology) of blood samples was analyzed at day 5. Analyses identified the total number of white blood cells, neutrophils, lymphocytes, monocytes, eosinophils, basophils, and platelets in collected samples.",
  "key": {"[1]": {"conditions": "5 mg/kg, Day 1, 5 mg/kg dose PO, individual animals"}, "[2]": {"conditions": "5 mg/kg, Day 1, 5 mg/kg dose PO, mean"}, "[3]": {"conditions": "5 mg/kg, Day 5, 5 mg/kg dose PO, individual animals"}, "[4]": {"conditions": "5 mg/kg, Day 5, 5 mg/kg dose PO, mean"}, "[5]": {"conditions": "10 mg/kg, Day 1, 10 mg/kg dose PO, individual animals"}, "[6]": {"conditions": "10 mg/kg, Day 1, 10 mg/kg dose PO, mean"}, "[7]": {"conditions": "10 mg/kg, Day 5, 10 mg/kg dose PO, individual animals"}, "[8]": {"conditions": "10 mg/kg, Day 5, 10 mg/kg dose PO, mean"}, "[9]": {"conditions": "20 mg/kg, Day 1, 20 mg/kg dose PO, individual animals"}, "[10]": {"conditions": "20 mg/kg, Day 1, 20 mg/kg dose PO, mean"}, "[11]": {"conditions": "20 mg/kg, Day 5, 20 mg/kg dose PO, individual animals"}, "[12]": {"conditions": "20 mg/kg, Day 5, 20 mg/kg dose PO, mean"}, "[13]": {"conditions": "single PO administration Day 1, 10.0 over 5.00 mg/kg, dose ratio 2.00"}, "[14]": {"conditions": "single PO administration Day 1, 20.0 over 5.00 mg/kg, dose ratio 4.00"}, "[15]": {"conditions": "single PO administration Day 1, 20.0 over 10.0 mg/kg, dose ratio 2.00"}},
  "note": "Where two headings read alike, the source gives them in different places.",
  "data": [
    {"smiles": "Cn1cc(-c2ccccc2)c(-c2cn(C)c(=O)c3[nH]c(-c4cnn(C(F)(F)F)c4)cc23)cc1=O", "note": "[Compound A, 6-methyl-4-(1-methyl-2-oxo-5-phenyl-1,2-dihydropyridin-4-yl)-2-(1-(trifluoromethyl)-1H-pyrazol-4-yl)-1,6-dihydro-7H-pyrrolo[2,3-c]pyridin-7-one]", "values": [
      {"measurement": "Tmax", "setting": "[1]", "value": 8, "unit": "h"},
      {"measurement": "AUC(0-inf)", "setting": "[1]", "value": 7.88, "unit": "µg·h/mL"},
      {"measurement": "Cmax", "setting": "[1]", "value": 785, "unit": "ng/mL"},
      {"measurement": "MRT inf", "setting": "[1]", "value": 9.3, "unit": "h"},
      {"measurement": "MRT last", "setting": "[1]", "value": 9.77, "unit": "h"},
      {"measurement": "half-life", "setting": "[1]", "value": 5.63, "unit": "h"},
      {"measurement": "AUC(0-t)", "setting": "[2]", "value": 9.5, "unit": "µg·h/mL"},
      {"measurement": "Tmax", "setting": "[2]", "value": 6, "unit": "h"},
      {"measurement": "Cmax", "setting": "[2]", "value": 736, "unit": "ng/mL"},
      {"measurement": "MRT last", "setting": "[2]", "value": 8.8, "unit": "h"},
      {"measurement": "AUC(0-t)", "setting": "[3]", "value": 17.8, "unit": "µg·h/mL"},
      {"measurement": "Tmax", "setting": "[3]", "value": 2, "unit": "h"},
      {"measurement": "Cmax", "setting": "[3]", "value": 1270, "unit": "ng/mL"},
      {"measurement": "MRT inf", "setting": "[3]", "value": 20, "unit": "h"},
      {"measurement": "MRT last", "setting": "[3]", "value": 9.78, "unit": "h"},
      {"measurement": "AUC(0-t)", "setting": "[4]", "value": 14.5, "unit": "µg·h/mL"},
      {"measurement": "Tmax", "setting": "[4]", "value": 2, "unit": "h"},
      {"measurement": "AUC(0-inf)", "setting": "[4]", "value": 18.9, "unit": "µg·h/mL"},
      {"measurement": "Cmax", "setting": "[4]", "value": 1160, "unit": "ng/mL"},
      {"measurement": "MRT inf", "setting": "[4]", "value": 15.1, "unit": "h"},
      {"measurement": "MRT last", "setting": "[4]", "value": 8.93, "unit": "h"},
      {"measurement": "half-life", "setting": "[4]", "value": 9.96, "unit": "h"},
      {"measurement": "AUC(0-t)", "setting": "[5]", "value": 19.5, "unit": "µg·h/mL"},
      {"measurement": "Tmax", "setting": "[5]", "value": 4, "unit": "h"},
      {"measurement": "AUC(0-inf)", "setting": "[5]", "value": 20.5, "unit": "µg·h/mL"},
      {"measurement": "Cmax", "setting": "[5]", "value": 2010, "unit": "ng/mL"},
      {"measurement": "MRT inf", "setting": "[5]", "value": 8.8, "unit": "h"},
      {"measurement": "MRT last", "setting": "[5]", "value": 7.59, "unit": "h"},
      {"measurement": "half-life", "setting": "[5]", "value": 5.24, "unit": "h"},
      {"measurement": "AUC(0-t)", "setting": "[6]", "value": 17.5, "unit": "µg·h/mL"},
      {"measurement": "Tmax", "setting": "[6]", "value": 3, "unit": "h"},
      {"measurement": "AUC(0-inf)", "setting": "[6]", "value": 18.6, "unit": "µg·h/mL"},
      {"measurement": "Cmax", "setting": "[6]", "value": 1730, "unit": "ng/mL"},
      {"measurement": "MRT inf", "setting": "[6]", "value": 9.17, "unit": "h"},
      {"measurement": "MRT last", "setting": "[6]", "value": 7.72, "unit": "h"},
      {"measurement": "half-life", "setting": "[6]", "value": 5.6, "unit": "h"},
      {"measurement": "AUC(0-t)", "setting": "[7]", "value": 20.5, "unit": "µg·h/mL"},
      {"measurement": "Tmax", "setting": "[7]", "value": 2, "unit": "h"},
      {"measurement": "AUC(0-inf)", "setting": "[7]", "value": 23, "unit": "µg·h/mL"},
      {"measurement": "Cmax", "setting": "[7]", "value": 1740, "unit": "ng/mL"},
      {"measurement": "MRT inf", "setting": "[7]", "value": 11.3, "unit": "h"},
      {"measurement": "MRT last", "setting": "[7]", "value": 8.5, "unit": "h"},
      {"measurement": "half-life", "setting": "[7]", "value": 7.3, "unit": "h"},
      {"measurement": "AUC(0-t)", "setting": "[8]", "value": 28.3, "unit": "µg·h/mL"},
      {"measurement": "Tmax", "setting": "[8]", "value": 2, "unit": "h"},
      {"measurement": "AUC(0-inf)", "setting": "[8]", "value": 34.1, "unit": "µg·h/mL"},
      {"measurement": "Cmax", "setting": "[8]", "value": 2260, "unit": "ng/mL"},
      {"measurement": "MRT inf", "setting": "[8]", "value": 13.4, "unit": "h"},
      {"measurement": "MRT last", "setting": "[8]", "value": 8.95, "unit": "h"},
      {"measurement": "half-life", "setting": "[8]", "value": 8.8, "unit": "h"},
      {"measurement": "AUC(0-t)", "setting": "[9]", "value": 49.4, "unit": "µg·h/mL"},
      {"measurement": "Tmax", "setting": "[9]", "value": 4, "unit": "h"},
      {"measurement": "Cmax", "setting": "[9]", "value": 4330, "unit": "ng/mL"},
      {"measurement": "MRT inf", "setting": "[9]", "value": 9.65, "unit": "h"},
      {"measurement": "MRT last", "setting": "[9]", "value": 8.19, "unit": "h"},
      {"measurement": "AUC(0-t)", "setting": "[10]", "value": 67.9, "unit": "µg·h/mL"},
      {"measurement": "Tmax", "setting": "[10]", "value": 4, "unit": "h"},
      {"measurement": "AUC(0-inf)", "setting": "[10]", "value": 84.7, "unit": "µg·h/mL"},
      {"measurement": "Cmax", "setting": "[10]", "value": 5160, "unit": "ng/mL"},
      {"measurement": "MRT inf", "setting": "[10]", "value": 13.9, "unit": "h"},
      {"measurement": "MRT last", "setting": "[10]", "value": 9.15, "unit": "h"},
      {"measurement": "half-life", "setting": "[10]", "value": 8.67, "unit": "h"},
      {"measurement": "Tmax", "setting": "[11]", "value": 2, "unit": "h"},
      {"measurement": "Cmax", "setting": "[11]", "value": 3510, "unit": "ng/mL"},
      {"measurement": "AUC(0-t)", "setting": "[12]", "value": 30.2, "unit": "µg·h/mL"},
      {"measurement": "Tmax", "setting": "[12]", "value": 2, "unit": "h"},
      {"measurement": "AUC(0-inf)", "setting": "[12]", "value": 1070, "unit": "µg·h/mL"},
      {"measurement": "Cmax", "setting": "[12]", "value": 2860, "unit": "ng/mL"},
      {"measurement": "MRT inf", "setting": "[12]", "value": 483, "unit": "h"},
      {"measurement": "MRT last", "setting": "[12]", "value": 6.3, "unit": "h"},
      {"measurement": "half-life", "setting": "[12]", "value": 334, "unit": "h"},
      {"measurement": "mortality", "setting": "one animal of the highest dose, 5 day PO study", "value": "found dead on day 6"},
      {"measurement": "AUC0-last Ratio (dose proportionality)", "setting": "[13]", "value": 1.85},
      {"measurement": "Cmax Ratio (dose proportionality)", "setting": "[13]", "value": 2.35},
      {"measurement": "AUC0-last Ratio (dose proportionality)", "setting": "[14]", "value": 7.15},
      {"measurement": "Cmax Ratio (dose proportionality)", "setting": "[14]", "value": 7.02},
      {"measurement": "AUC0-last Ratio (dose proportionality)", "setting": "[15]", "value": 3.87},
      {"measurement": "Cmax Ratio (dose proportionality)", "setting": "[15]", "value": 2.99}
    ]}
  ]
}
